pIC50: −log10 of the molar value.
System: HCV GT-1b Con1 subgenomic replicon
Experiment: HCV GT1b replicon luciferase reporter assay (2209-23 cells)
Format: cell-based
Conditions: Hepatitis C virus, 2209-23 cell line (Huh-7 with GT-1b Con1 subgenomic replicon), Renilla luciferase read 72 hours after compound addition
From the text: Determination of compounds HCV GT1b inhibitory replicon activity using the replicon luciferase reporter assay
The 2209-23 cell line was developed at Roche by stable transfection of the hepatoma cell line Huh-7 with a GT-1b Con1 subgenomic bicistronic replicon as previously described. Subgenomic replicon cell line was established in cured Huh7 cells, obtained from R. Bartenschlager (J. Virol. 2003 March; 77 (5):3007-19) The GT-1a H77 subgenomic replicon vector pRLuc H771b 75 S/I, was created by replacing the non structural region of the GT-1b Con1 subgenomic replicon by the one of the H77 strain, except for the first 75 amino acids of the NS3 protein that are from GT-1b Con1 strain. (J. Virol. 2001 77:5352-59) The GT-1a pRLuc H771b 75 S/I subgenomic replicon cell line was established in cured Huh7 cells, obtained from R. Bartenschlager. (J. Virol. 2003 March; 77 (5):3007-19)
All the subgenomic replicon cell lines were cultured in Dulbecco's Modified Eagle Medium (DMEM-Glutamax™-I; Invitrogen Cat #10569-010). The medium was supplemented with 10% Fetal Bovine Serum (Invitrogen Cat #10082-147), 1% penicillin/streptomycin (Mediatech Cat #30-002-CI) and 500 μg/ml of G418 (Mediatech Cat #30-234-CI). Cells were maintained at 37° C. in a humidified 5% CO2 atmosphere.
2209-23 cells were plated at a cell density of 5000 cells per well in 96 well plates (Becton Dickinson, Cat #35 3296). Cells were plated in 90 μl of Dulbecco's Modified Eagle Medium (DMEM-Glutamax™-I), (Invitrogen Cat #10569-010) medium was supplemented with 5% Fetal Bovine Serum (Invitrogen Cat #10082-147), 1% penicillin/streptomycin (Mediatech Cat #30-002-CI). The pRluc H771b 75 S/I cells were plated in 96-well plate at 3000 cells/well in DMEM-Glutamax™-I containing 5% FBS and 1% penicillin/streptomycin in 90 μl final volume. Cells were allowed to equilibrate for 24 hours at 37° C. and 5% CO2 at which time compounds were added. Compounds (or medium as a control) were added 24 hours post-plating in 3 fold dilutions at a final DMSO concentration of 1% in 10 ul volume. Renilla luciferase reporter signal was read 72 hours after addition of compounds using the Renilla Luciferase Assay System (Promega, cat #E2820). EC50 values were defined as the compound concentration at which a 50% reduction in the levels of renilla luciferase reporter was observed as compared to control samples in the absence of compound and was determined by non-linear fitting of compound dose-response data. The EC50 was approximated if maximum percentage inhibition was less than 90% and more than 70%.

Going from `COC(=O)N[C@H](C(=O)N1CCC[C@H]1C(=O)NC(=O)Nc1ccc(-c2ccc(-c3cnc([C@@H]4CCCN4C(=O)[C@@H](NC(=O)OC)C(C)C)[nH]3)cc2)cc1)C(C)C` [Compound I-1, ((S)-1-{(S)-2-[3-(4′-{2-[(S)-1-((S)-2-Methoxycarbonylamino-3-methyl-butyryl)-pyrrolidin-2-yl]-3H-imidazol-4-yl}-biphenyl-4-yl)-ureidocarbonyl]-pyrrolidine-1-carbonyl}-2-methyl-propyl)-carbamic acid methyl ester] to `COC(=O)N[C@H](C(=O)N1CCC[C@H]1C(=O)NC(=O)Nc1cccc(-c2ccc(-c3cnc([C@@H]4CCCN4C(=O)[C@@H](NC(=O)OC)C(C)C)[nH]3)cc2)c1)C(C)C` [Compound I-2, ((S)-1-{(S)-2-[3-(4′-{2-[(S)-1-((S)-2-Methoxycarbonylamino-3-methyl-butyryl)-pyrrolidin-2-yl]-3H-imidazol-4-yl}-biphenyl-3-yl)-ureidocarbonyl]-pyrrolidine-1-carbonyl}-2-methyl-propyl)-carbamic acid methyl ester], the pIC50 falls from 9.33 to 8.07 (1.26 log units). The first is the more potent here.

First: COC(=O)N[C@H](C(=O)N1CCC[C@H]1c1ncc(-c2ccc(-c3ccc(NC(=O)NC(=O)[C@@H]4CCCN4C(=O)[C@H](NC(=O)OC)c4ccccc4)cc3)cc2)[nH]1)C(C)C [Compound I-3, ((S)-1-{(S)-2-[5-(4′-{3-[(S)-1-((R)-2-Methoxycarbonylamino-2-phenyl-acetyl)-pyrrolidine-2-carbonyl]-ureido}-biphenyl-4-yl)-1H-imidazol-2-yl]-pyrrolidine-1-carbonyl}-2-methyl-propyl)-carbamic acid methyl ester]
Second: COC(=O)N[C@H](C(=O)N1CCC[C@H]1c1ncc(-c2ccc(-c3ccc(CNC(=O)NC(=O)[C@@H]4CCCN4C(=O)[C@H](NC(=O)OC)c4ccccc4)cc3)cc2)[nH]1)C(C)C [Compound I-6, ((S)-1-{(S)-2-[5-(4′-{3-[(S)-1-((R)-2-Methoxycarbonylamino-2-phenyl-acetyl)-pyrrolidine-2-carbonyl]-ureidomethyl}-biphenyl-4-yl)-1H-imidazol-2-yl]-pyrrolidine-1-carbonyl}-2-methyl-propyl)-carbamic acid methyl ester]
The pIC50 of the first is 2.88 log units higher: 11.05 for the first, 8.17 for the second.

Going from `COC(=O)N[C@H](C(=O)N1CCC[C@H]1c1ncc(-c2ccc(-c3ccc(NC(=O)NC(=O)[C@@H]4CCCN4C(=O)[C@@H](c4ccccc4)N(C)C)cc3)cc2)[nH]1)C(C)C` [Compound I-4, ((S)-1-{(S)-2-[5-(4′-{3-[(S)-1-((R)-2-Dimethylamino-2-phenyl-acetyl)-pyrrolidine-2-carbonyl]-ureido}-biphenyl-4-yl)-1H-imidazol-2-yl]-pyrrolidine-1-carbonyl}-2-methyl-propyl)-carbamic acid methyl ester] to `COC(=O)N[C@H](C(=O)N1CCC[C@H]1c1ncc(-c2ccc(-c3nc4ccc(NC(=O)NC(=O)[C@@H]5CCCN5C(=O)[C@@H](c5ccccc5)N(C)C)cc4s3)cc2)[nH]1)C(C)C` [Compound I-11, [(S)-1-((S)-2-{5-[4-(6-{3-[(S)-1-((R)-2-Dimethylamino-2-phenyl-acetyl)-pyrrolidine-2-carbonyl]-ureido}-benzothiazol-2-yl)-phenyl]-1H-imidazol-2-yl}-pyrrolidine-1-carbonyl)-2-methyl-propyl]-carbamic acid methyl ester], the pIC50 falls from 11.15 to 10.54 (0.61 log units).

Compared with `COC(=O)N[C@H](C(=O)N1CCC[C@H]1C(=O)NC(=O)NCc1ccc(-c2ccc(-c3cnc([C@@H]4CCCN4C(=O)[C@@H](NC(=O)OC)C(C)C)[nH]3)cc2)cc1)C(C)C` [Compound I-5, ((S)-1-{(S)-2-[5-(4′-{3-[(S)-1-((S)-2-Methoxycarbonylamino-3-methyl-butyryl)-pyrrolidine-2-carbonyl]-ureidomethyl}-biphenyl-4-yl)-1H-imidazol-2-yl]-pyrrolidine-1-carbonyl}-2-methyl-propyl)-carbamic acid methyl ester], `COC(=O)N[C@H](C(=O)N1CCC[C@H]1C(=O)NC(=O)Nc1ccc(-c2ccc(-c3cnc([C@@H]4CCCN4C(=O)[C@@H](NC(=O)OC)C(C)C)[nH]3)cc2)cc1F)C(C)C` [Compound I-12, ((S)-1-{(S)-2-[5-(3′-Fluoro-4′-{3-[(S)-1-((S)-2-methoxycarbonylamino-3-methyl-butyryl)-pyrrolidine-2-carbonyl]-ureido}-biphenyl-4-yl)-1H-imidazol-2-yl]-pyrrolidine-1-carbonyl}-2-methyl-propyl)-carbamic acid methyl ester] is 1.49 log units higher in pIC50: 8.70 for the first, 10.19 for the second. The second is the more potent here.

First: COC(=O)N[C@H]1CCC(=O)N2CCC[C@@H](c3ncc(-c4ccc(-c5ccc(NC(=O)NC(=O)[C@@H]6CCCN6C(=O)[C@H](NC(=O)OC)c6ccccc6)cc5)cc4)[nH]3)N2C1=O [Compound I-7, {(4S,7S)-4-[5-(4′-{3-[(S)-1-((R)-2-Methoxycarbonylamino-2-phenyl-acetyl)-pyrrolidine-2-carbonyl]-ureido}-biphenyl-4-yl)-1H-imidazol-2-yl]-6,10-dioxo-octahydro-pyridazino[1,2-a][1,2]diazepin-7-yl}-carbamic acid methyl ester]
Second: COC(=O)N[C@H](C(=O)N1CCC[C@H]1c1ncc(-c2ccc(-c3ccc(NC(=O)NC(=O)[C@@H]4CCCN4C(=O)[C@H](NC(=O)OC)c4ccccc4)cn3)cc2)[nH]1)C(C)C [Compound I-10, [(S)-1-((S)-2-{5-[4-(5-{3-[(S)-1-((R)-2-Methoxycarbonylamino-2-phenyl-acetyl)-pyrrolidine-2-carbonyl]-ureido}-pyridin-2-yl)-phenyl]-1H-imidazol-2-yl}-pyrrolidine-1-carbonyl)-2-methyl-propyl]-carbamic acid methyl ester]
The pIC50 of the first is 1.02 log units lower: 9.37 for the first, 10.39 for the second. The second is the more potent here.

First: COC(=O)N[C@H](C(=O)N1CCC[C@H]1c1ncc(-c2ccc(-c3nc4ccc(NC(=O)NC(=O)[C@@H]5CCCN5C(=O)OC(C)(C)C)cc4s3)cc2)[nH]1)C(C)C [Compound I-8, (S)-2-{3-[2-(4-{2-[(S)-1-((S)-2-Methoxycarbonylamino-3-methyl-butyryl)-pyrrolidin-2-yl]-3H-imidazol-4-yl}-phenyl)-benzothiazol-6-yl]-ureidocarbonyl}-pyrrolidine-1-carboxylic acid tert-butyl ester]
Second: COC(=O)N[C@H](C(=O)N1CCC[C@H]1C(=O)NC(=O)Nc1ccc2nc(-c3ccc(-c4cnc([C@@H]5CCCN5C(=O)[C@@H](NC(=O)OC)C(C)C)[nH]4)cc3)sc2c1)C(C)C [Compound I-9, [(S)-1-((S)-2-{5-[4-(6-{3-[(S)-1-((S)-2-Methoxycarbonylamino-3-methyl-butyryl)-pyrrolidine-2-carbonyl]-ureido}-benzothiazol-2-yl)-phenyl]-1H-imidazol-2-yl}-pyrrolidine-1-carbonyl)-2-methyl-propyl]-carbamic acid methyl ester]
The pIC50 of the first is 1.35 log units lower: 8.11 for the first, 9.46 for the second. The second is the more potent here.

— patent publication US20120328565A1, “ANTIVIRAL COMPOUNDS” (priority 2011, published 2012)
